# According to patent US6086789A, “Medical uses of pyruvates” (Case Western Reserve University, priority 1998, dated 2000):
# Columns and labels:
# myocardial infarct = assay: Decrease in myocardial infarct size in swine (LAD occlusion/reperfusion); type: in vivo
# Method: Decrease in myocardial infarct size in swine by DPAG.
# The animals were anesthetized, instrumented, and subjected to 60 minutes of total occlusion of the distal 2/3 of the left anterior descending coronary artery, followed by 120 min of reperfusion. The area of the infarct was stained with tetrazolium, and infarct size quantitated on 5 mm slices of tissue. Treatment with DPAG was started with the onset of reperfusion (8.0 mg/kgmin for 120 min).
# [1] = Therapeutic pyruvate concentration in vivo, infusion of rats; parameters: species or system rat
# Method: Therapeutic pyruvate concentration in vivo with DPAG
# After preparing pure DPAG, experiments were performed to test whether it could be used to impose a therapeutic concentration of 1 mM pyruvate in arterial blood. Overnight-fasted rats, anesthetized with halothane, were infused in the jugular vein with DPAG at 90 μmol·min^-1 ·kg^-1 for 90 min. This rate corresponds to about 120% of the rats' caloric requirement. Five blood samples (70 μl) were taken from the carotid artery between 60 and 90 min. The arterial concentrations of pyruvate, lactate, and glycerol were clamped at 1.0, 2.5, and 0.8 mM, respectively. Corresponding portal vein concentrations at 90 min were 0.6, 2.5, and 1.0 mM, respectively. FIGS. 8 and 9 show blood concentrations of metabolites in rats infused with DPAG (panel A) and in control rats infused with saline (panel B). Control rats show normal arterial concentrations of pyruvate (0.05 mM) and lactate (0.3 to 0.6 mM; normal values for lactate are up to 1.5 mM). In rats infused with DPAG, the arterial concentrations of pyruvate and lactate were clamped at 1.0, and 2.5 mM, respectively. Corresponding portal vein concentrations at 90 min were 0.6 and 2.5 mM, respectively. Arterial glucose remained at 5-6 mM. […] Thus, DPAG can be safely used to set up the 1 mM target concentration of pyruvate expected to be beneficial for the treatment of reperfusion injury. […] Third, during peripheral administration of DPAG at 90 μmol·min^-1 ·kg^-1, portal pyruvate concentration was about 2/3 that which yielded a 3 to 6-fold increase in ethanol uptake by perfused rat livers. A portal pyruvate concentration of 1 mM could be achieved (i) by increasing the peripheral infusion of DPAG to 120 μmol·min^-1 ·kg^-1, or (ii) by administering DPAG enterally to better target portal vein concentrations.
# perfused rat livers [2] = assay: Effect of DPAG on ethanol uptake by perfused rat livers; details: DPAG raised from zero to 0.5 mM, 2 mM ethanol, read-out: increase of ethanol uptake by the liver
# Method: The effect of DPAG on the rate of ethanol uptake by perfused rat livers was also tested. Livers were perfused with non-recirculating buffer containing 4 mM glucose, 2 mM ethanol and variable concentrations of DPAG (0 to 1.5 mM). […] Note that 0.5 mM DPAG corresponds to 1 mM pyruvate after hydrolysis. Thus, to accelerate ethanol oxidation in vivo, the rate of DPAG administration should be adjusted to achieve a 1 mM concentration of free pyruvate in the portal vein. When DPAG was infused to live rats at 90 μmol·min^-1·kg^-1, the portal vein concentration of pyruvate was 0.6 mM. A portal pyruvate concentration of 1 mM could be achieved in vivo (i) by increasing the peripheral infusion of DPAG to 120 μmol·min·^-1 ·kg^-1, or (ii) by administering DPAG enterally to better target portal vein concentrations.
# [3] = test system: ketoacidotic diabetic rats; assay: Treatment of ketoacidotic diabetic BB rats; type: in vivo
# Method: Prediabetic male BB rats were purchased from the University of Massachussetts Breeding Center. They were treated with insulin (PZI 40 U/mL, Anpro Pharmaceutical), mean of 2.1 U for rats weighing between 250-300 g) as soon as they became hyperglycemic. They were used after at least three weeks of clinical stability and steady weight growth. Under general anesthesia, permanent catheters were inserted in a carotid artery and the controlateral external jugular vein. Then, the rats were deprived of insulin for two days. […] The rats were then treated with one of four protocols: […]
# ethanol oxidation = details: intragastric gavage, dogs; cited from earlier work
# isolated rabbit hearts [4] = assay: Recovery of isolated rabbit hearts following 25 min of warm ischemia; parameters: species or system New Zealand rabbits; details: 20 μM PNACE
# Method: In the working mode, which simulates physiological conditions, hearts pump the buffer against a 85 cm hydrostatic pressure in the aorta. The mechanical performance of the hearts was assessed by monitoring heart rate, cardiac output, coronary flow, left ventricular pressure, and dP/dtmax. The latter parameter reflects the capacity of the heart to increase hydrostatic pressure in the left ventricle. Following 30 minutes of equilibration, the hearts were made ischemic for 25 minutes by clamping the aortic and left atrial canulas. Then, the clamps were removed to allow reperfusion with oxygenated KRB buffer containing either no additive (n=7, control group), or 20 μM pyruvate-N-acetyl-cysteine ethyl ester ([…]=7). PNACE was infused via a syringe pump into the inflowing perfusate. In the syringe, PNACE was dissolved in 0.1 mM HCl to prevent hydrolysis of the thioester.
# preserved rat livers = assay: Metabolic integrity of preserved rat livers upon reperfusion
# Method: Improved function of preserved rat livers
# The first group of livers (n=7, control group) was not preserved, but was perfused at 37° C. for 45 minutes. The second group of livers (n=8, preserved group) was flushed with ice-cold University of Wisconsin (UW) preservation solution and stored for 24 hours in ice-cold UW solution. Next, the livers were reperfused at 37° C. with non-recirculating KRB buffer containing 5 mM glucose. The third group of livers (n=8, preserved+PNACE group) was treated as the second group except that 20 μM PNACE was added to the UW preservation solution and to the reperfusion KRB buffer. During the last 45 min of (re)perfusion, the function of the three groups of livers was assessed by (i) the release of three cellular enzymes, i.e. lactate dehydrogenase, aspartate aminotransferase, and alanine aminotransferase, (ii) oxygen consumption, and (iii) the production of ketone bodies, ie β-hydroxybutyrate+acetoacetate, after addition of 1 mM octanoate to the perfusate.
# Effect of PNACE on metabolic integrity of preserved rat livers upon reperfusion
# [5] = Stability of PNACE in solution; type: physicochemical
# Text: However, the present inventive compound has proven to be readily manufacturable and very effective in the prevention of organ damage associated with reperfusion injury. The compound has been prepared in pure form and in gram amounts. Its formula has been confirmed by elemental analysis and gas chromatography-mass spectrometry. The compound is stable in slightly acidic solutions (pH 4-5). […] The compound has also been synthesized labeled with three deuterium ^2 H atoms on the N-acetyl moiety. This deuterated compound is used as an internal standard for the assay of the compound by isotope dilution gas chromatography-mass spectrometry.
# reperfused rat hearts = details: cited from earlier work
# isolated rabbit hearts [6] = assay: Recovery of isolated rabbit hearts following massive catecholamine injury; details: 50 μM isoproterenol, after 10 minutes
# Method: Recovery of isolated rabbit hearts following massive catecholamine injury
# Rabbit hearts were perfused in the working mode as in the above example. However, after the 30 minutes of equilibration, 50 μM isoproterenol was added to the inflowing perfusate for 10 min. Isoproterenol is a catecholamine, which, at the dose administered, induces a marked increase in heart rate and cardiac output. After 10 minutes, the mechanical performance of the hearts decreased markedly to the point where cardiac output was almost zero. Then, isoproterenol infusion was stopped, and perfusion was continued for 30 minutes with oxygenated KRB buffer containing either no additive (n=7, control group), or 20 μM PNACE (n=7).
# perfused rat livers [7] = assay: Acceleration of ethanol oxidation by components of pyruvate esters in perfused rat livers; details: perfused liver
# Method: Acceleration of ethanol oxidation
# Rat livers were infused with ethanol and the components of the esters of glycerol-and-DHA pyruvate to represent the conditions that will occur after ester hydrolysis. […] After 10 min baseline, the influent perfusate was enriched with various equimolar concentrations of the components of the esters, ie DHA+Na-pyruvate, or glycerol+Na-pyruvate (up to 2.2 mM). These conditions simulated infusion and hydrolysis of glycerol- or DHA-monopyruvate. The uptakes of ethanol, pyruvate, DHA and glycerol, as well as the productions of lactate and glucose were measured.
# [8] = Group III preserved + PNACE (20 μM), 25-30 min.
# [9] = preserved reperfused rat livers, 20 μM PNACE
compound,measurement,setting,value
"CC(=O)OCC(COC(=O)C(C)=O)OC(=O)C(C)=O (stereo not shown) [DPAG, dipyruvyl-acetyl-glycerol]","infarct size, percent of the area at risk for infarction","myocardial infarct; DPAG 8.0 mg/kgmin for 120 min from onset of reperfusion, n=6, p<0.0005 vs control 40.0±3.6%",9.1±3.8%
same,effect on heart rate or ventricular pressure,myocardial infarct; DPAG infusion,did not affect heart rate or ventricular pressure
same,Arterial glucose,[1]; DPAG 90 μmol.min^-1.kg^-1,5 to 6 mM
same,portal vein concentration of lactate,"[1]; DPAG 90 μmol.min^-1.kg^-1, at 90 min",2.5 mM
same,acid-base and electrolyte parameters of aortic blood,"[1]; DPAG 90 μmol.min^-1.kg^-1, final samples",normal acid-base and electrolyte parameters
same,arterial concentration of lactate,"[1]; DPAG 90 μmol.min^-1.kg^-1 jugular vein, 60-90 min",2.5 mM
same,sodium overload and/or acid-base perturbations,[1]; DPAG at 1 mM arterial pyruvate,without sodium overload and/or acid-base perturbations
same,increases in glucose and lactate concentrations,[1]; DPAG at 120% of the caloric requirement,lack of major increases in glucose and lactate concentrations
same,fold induction at 500 µM,perfused rat livers [2],2.5
same,decrease of total KB concentration,"[3]; DPAG 90 μmol.min^-1 kg^-1 in saline infusion, in 2 hr",90%
same,tolerability of massive doses,[3]; compromised BB rats in diabetic ketoacidosis,well tolerated
O=C(O)O [NH4 HCO3],rate of ethanol oxidation,ethanol oxidation,increases the rate of ethanol oxidation
"CCOC(=O)[C@H](CSC(=O)C(C)=O)NC(C)=O [PNACE, Pyruvate-N-acetyl-L-cysteine ethyl ester]",duration of functional recovery,isolated rabbit hearts [4],lasted throughout the 30 minute reperfusion experiment
same,Release of lactate dehydrogenase,"preserved rat livers; Group III preserved + PNACE (20 μM), 10-14 min.",4.5 U/L.g
same,Oxygen consumption,preserved rat livers; [8],2.4 µmol/min/g
same,Release of alanine aminotransferase,preserved rat livers; [8],0.33 U/L.g
same,Release of aspartate amino-transferase,preserved rat livers; [8],0.73 U/L.g
same,Ketone body production,"preserved rat livers; Group III preserved + PNACE (20 μM), 25-30 min., 1 mM octanoate",1.4 µmol/min/g
same,capacity of the liver to oxidize fatty acids to ketone bodies,preserved rat livers; [9],restores partially the capacity of the liver to oxidize fatty acids to ketone bodies
same,initial release of tissue enzymes,preserved rat livers; [9],markedly decreases the initial release of tissue enzymes
same,oxygen consumption (in words),preserved rat livers; [9],restores oxygen consumption to the level of non-preserved livers
same,stability in slightly acidic solutions,[5]; pH 4-5,stable
same,hydrolysis to pyruvate and N-acetylcysteine ethyl ester,[5]; pH 7.4,slowly hydrolyzed
same,"infarct size, percent of the area at risk for infarction",myocardial infarct; PNACE group (n=4),about 16±4%
CC(=O)N[C@@H](CS)C(=O)O [acetylcysteine],production of ROS,reperfused rat hearts,decreases the production of ROS
CC(C)NCC(O)c1ccc(O)c(O)c1 (stereo not shown) [isoproterenol],cardiac output after isoproterenol,isolated rabbit hearts [6],almost zero
CC(=O)C(=O)O [pyruvate],increase in ethanol uptake by perfused rat livers,perfused rat livers [7],3-6 fold
insulin,decrease of total KB concentration,"[3]; 0.75 U insulin intravenously + saline, 2 hr",30%
